# According to PMC6225228, “Design, Synthesis and Evaluation of N-pyrazinylbenzamides as Potential Antimycobacterial Agents” (Molecules : A Journal of Synthetic Chemistry and Natural …, 2018):
# Read-outs that look alike come from different tables or passages of the source.
# Columns and labels:
# [1] = test system: Mycobacterium tuberculosis H37Rv CNCTC My 331/88 (ATCC 27294); experiment: Antimycobacterial microdilution MABA, M. tuberculosis; type: cell-based; conditions: for MIC: Mycobacterium tuberculosis
# [2] = test system: M. kansasii CNCTC My 235/80 (ATCC 12478); experiment: Antimycobacterial microdilution MABA, M. kansasii; type: cell-based, Mycobacterium kansasii; conditions: Mycobacterium kansasii
# [3] = test system: M. avium ssp. avium CNCTC My 80/72 (ATCC 15769); experiment: Antimycobacterial microdilution MABA, M. avium; type: cell-based, Mycobacterium avium; conditions: for MIC: Mycobacterium avium
# [4] = test system: Mycobacterium smegmatis CCM 4622 (ATCC 607); experiment: Antimycobacterial microdilution, M. smegmatis; type: cell-based; conditions: Mycolicibacterium smegmatis, read-out: M. smeg. ATCC 607 MIC
# [5] = test system: Staphylococcus aureus CCM 4516/08; experiment: Antibacterial microdilution broth, SA; type: cell-based; conditions: Staphylococcus aureus
# [6] = test system: Staphylococcus aureus H 5996/08 methicillin resistant; experiment: microbe, parasite or virus in culture; type: cell-based; conditions: Staphylococcus aureus, MRSA, read-out: MIC MRSA
# [7] = test system: Staphylococcus epidermidis H 6966/08; experiment: Antibacterial microdilution broth, SE; type: cell-based; conditions: Staphylococcus epidermidis, read-out: MIC SE
# [8] = test system: Enterococcus sp. J 14365/08; experiment: Antibacterial microdilution broth, EF; type: cell-based; conditions: Enterococcus, read-out: MIC EF
# [9] = test system: Escherichia coli CCM 4517; experiment: Antibacterial microdilution broth, EC; type: cell-based; conditions: Escherichia coli, read-out: MIC EC
# [10] = test system: Pseudomonas aeruginosa CCM 1961; experiment: Antibacterial microdilution broth, PA; type: cell-based; conditions: Pseudomonas aeruginosa, read-out: MIC PA
# [11] = test system: Candida albicans ATCC 44859; experiment: Antifungal microdilution broth, CA; type: cell-based; conditions: Candida albicans, read-out: MIC CA
# Candida tropicalis 156 = experiment: Antifungal microdilution broth, CT; type: cell-based; conditions: read-out: MIC CT
# Candida krusei E28 = experiment: Antifungal microdilution broth, CK; type: cell-based; conditions: Pichia kudriavzevii, read-out: MIC CK
# Candida glabrata 20/I = experiment: Antifungal microdilution broth, CG; type: cell-based; conditions: Nakaseomyces glabratus, 20/I, read-out: MIC CG
# Trichosporon asahii 1188 = experiment: Antifungal microdilution broth, TA; type: cell-based; conditions: read-out: MIC TA
# [12] = test system: Aspergillus fumigatus 231; experiment: Antifungal microdilution broth, AF; type: cell-based; conditions: read-out: MIC AF
# [13] = test system: Lichtheimia corymbifera 272; experiment: Antifungal microdilution broth, LC; type: cell-based; conditions: read-out: MIC LC
# [14] = test system: Trichophyton interdigitale 445; experiment: Antifungal microdilution broth, TI; type: cell-based; conditions: read-out: MIC TI
# [15] = read-out: Mtb H37Rv ATCC 27294 MIC, Middlebrook 7H9 with OADC growth supplement, pH = 6.6, MABA
# [16] = ATCC12478, pH 6.6, read-out: M. kans. ATCC 12478 MIC, Middlebrook 7H9 with OADC, pH 6.6, MABA
# [17] = ATCC15769, pH 6.6, read-out: M. avium ATCC 15769 MIC
# [18] = CCM4516, 24 h, read-out: MIC SA, 24 h
# [19] = CCM4516, 48 h, read-out: MIC SA, 48 h
# [20] = Trichosporon asahii, 1188, 24 h
# [21] = Trichosporon asahii, 1188, 48 h
# [22] = Aspergillus fumigatus, 231, 24 h
# [23] = Aspergillus fumigatus, 231, 48 h
# [24] = Lichtheimia corymbifera, 272, 24 h
# [25] = Lichtheimia corymbifera, 272, 48 h
# [26] = Trichophyton interdigitale, 445, 72 h
# [27] = Trichophyton interdigitale, 445, 120 h
# [28] = Middlebrook 7H9 with OADC growth supplement, pH = 6.6, MABA
# [29] = Middlebrook 7H9 with OADC growth supplement, pH = 6.6, MABA, read-out: Mtb H37Rv ATCC 27294 MIC
# [30] = ATCC12478, Middlebrook 7H9 with OADC, pH 6.6, MABA, read-out: M. kans. ATCC 12478 MIC
# [31] = ATCC15769, Middlebrook 7H9 with OADC, pH 6.6, MABA, read-out: M. avium ATCC 15769 MIC
# [32] = Middlebrook 7H9 with OADC, resazurin
compound,measurement,setting,value
CC(=O)Oc1ccc(C(=O)Nc2cnccn2)cc1 [Compound 1d-Ac],MIC,[1]; [15],> 100 µg/mL
same,MIC,[2]; [16],> 100 µg/mL
same,MIC,[3]; [17],> 100 µg/mL
same,MIC,[4],≥ 500 µg/mL
same,MIC,[5]; [18],> 500 µM
same,MIC,[5]; [19],> 500 µM
same,MIC,[6]; 24 h,> 500 µM
same,MIC,[6]; 48 h,> 500 µM
same,MIC,"[7]; H6966/08, 24 h",> 500 µM
same,MIC,"[7]; H6966/08, 48 h",> 500 µM
same,MIC,"[8]; SP.J14365/08, 24 h",> 500 µM
same,MIC,"[8]; SP.J14365/08, 48 h",> 500 µM
same,MIC,"[9]; CCM4517, 24 h",> 500 µM
same,MIC,"[9]; CCM4517, 48 h",> 500 µM
same,MIC,"[10]; CCM1961, 72 h",> 500 µM
same,MIC,"[10]; CCM1961, 120 h",> 500 µM
same,MIC,"[11]; ATCC44859, 24 h",> 500 µM
same,MIC,"[11]; ATCC44859, 48 h",> 500 µM
same,MIC,"Candida tropicalis 156; Candida tropicalis, 156, 24 h",> 500 µM
same,MIC,"Candida tropicalis 156; Candida tropicalis, 156, 48 h",> 500 µM
same,MIC,"Candida krusei E28; E28, 24 h",> 500 µM
same,MIC,"Candida krusei E28; E28, 48 h",> 500 µM
same,MIC,Candida glabrata 20/I; 24 h,> 500 µM
same,MIC,Candida glabrata 20/I; 48 h,> 500 µM
same,MIC,Trichosporon asahii 1188; [20],> 500 µM
same,MIC,Trichosporon asahii 1188; [21],> 500 µM
same,MIC,[12]; [22],> 500 µM
same,MIC,[12]; [23],> 500 µM
same,MIC,[13]; [24],> 500 µM
same,MIC,[13]; [25],> 500 µM
same,MIC,[14]; [26],> 500 µM
same,MIC,[14]; [27],> 500 µM
same,melting point,,147.4 to 149.4 °C
COc1ccccc1C(=O)Nc1cnccn1 [Compound 1e],Mtb H37Rv ATCC 27294 MIC,[1]; [28],>100 µg/mL
same,MIC,[1]; [15],> 100 µg/mL
same,MIC,[2]; [16],100 µg/mL
same,M. avium ATCC 15769 MIC,"[3]; Middlebrook 7H9 with OADC, pH 6.6, MABA",>100 µg/mL
same,MIC,[3]; [17],> 100 µg/mL
same,MIC,[4],125 µg/mL
same,MIC,[5]; [18],> 500 µM
same,MIC,[5]; [19],> 500 µM
same,MIC,[6]; 24 h,> 500 µM
same,MIC,[6]; 48 h,> 500 µM
same,MIC,"[7]; H6966/08, 24 h",> 500 µM
same,MIC,"[7]; H6966/08, 48 h",> 500 µM
same,MIC,"[8]; SP.J14365/08, 24 h",> 500 µM
same,MIC,"[8]; SP.J14365/08, 48 h",> 500 µM
same,MIC,"[9]; CCM4517, 24 h",> 500 µM
same,MIC,"[9]; CCM4517, 48 h",> 500 µM
same,MIC,"[10]; CCM1961, 72 h",> 500 µM
same,MIC,"[10]; CCM1961, 120 h",> 500 µM
same,MIC,"[11]; ATCC44859, 24 h",> 500 µM
same,MIC,"[11]; ATCC44859, 48 h",> 500 µM
same,MIC,"Candida tropicalis 156; Candida tropicalis, 156, 24 h",> 500 µM
same,MIC,"Candida tropicalis 156; Candida tropicalis, 156, 48 h",> 500 µM
same,MIC,"Candida krusei E28; E28, 24 h",> 500 µM
same,MIC,"Candida krusei E28; E28, 48 h",> 500 µM
same,MIC,Candida glabrata 20/I; 24 h,> 500 µM
same,MIC,Candida glabrata 20/I; 48 h,> 500 µM
same,MIC,Trichosporon asahii 1188; [20],> 500 µM
same,MIC,Trichosporon asahii 1188; [21],> 500 µM
same,MIC,[12]; [22],> 500 µM
same,MIC,[12]; [23],> 500 µM
same,MIC,[13]; [24],> 500 µM
same,MIC,[13]; [25],> 500 µM
same,MIC,[14]; [26],> 500 µM
same,MIC,[14]; [27],> 500 µM
same,melting point,,100.3 to 102.4 °C
COc1ccc(C(=O)Nc2cncc(Cl)n2)cc1 [Compound 3g],MIC,[1]; [29],> 100 µg/mL
same,MIC,[2]; [30],> 100 µg/mL
same,MIC,[3]; [31],> 100 µg/mL
same,MIC,[4]; [32],≥ 500 µg/mL
same,melting point,,196.9 to 198.8 °C
Cc1ccc(C(=O)Nc2cncc(Cl)n2)cc1 [Compound 3h],Mtb H37Rv ATCC 27294 MIC,[1]; [28],>100 µg/mL
same,MIC,[1]; [29],> 100 µg/mL
same,MIC,[2]; [30],> 100 µg/mL
same,MIC,[3]; [31],> 100 µg/mL
same,MIC,[4]; [32],≥ 500 µg/mL
same,melting point,,169.1 to 170 °C
O=C(Nc1cncc(Cl)n1)c1ccc(Cl)cc1 [Compound 3l],Mtb H37Rv ATCC 27294 MIC,[1]; [28],>100 µg/mL
same,MIC,[1]; [29],> 100 µg/mL
same,MIC,[2]; [30],> 100 µg/mL
same,MIC,[3]; [31],> 100 µg/mL
same,MIC,[4]; [32],≥ 500 µg/mL
same,melting point,,193.8 to 194.7 °C
